Data set [1] in a line: Inhibition of ABCB1 in human A2780/ADR cells assessed as potentiation of daunorubicin-induced cytotoxicity measured after 72 hrs by MTT assay.
A short description of data set [2]: Inhibition of ABCG2 (unknown origin) expressed in MDCK2 cells co-expressing BCRP (unknown origin) assessed as potentiation of SN-38-induced cytotoxicity measured after 72 hrs by MTT assay. A general note: Formazan colour is commonly taken as a measure of viable cells.
Data set [3] deals with T1, Broad substrate specificity ATP-binding cassette transporter ABCG2 (Homo sapiens, UniProt Q9UNQ0).
T1 sequence (Q9UNQ0 whole entry): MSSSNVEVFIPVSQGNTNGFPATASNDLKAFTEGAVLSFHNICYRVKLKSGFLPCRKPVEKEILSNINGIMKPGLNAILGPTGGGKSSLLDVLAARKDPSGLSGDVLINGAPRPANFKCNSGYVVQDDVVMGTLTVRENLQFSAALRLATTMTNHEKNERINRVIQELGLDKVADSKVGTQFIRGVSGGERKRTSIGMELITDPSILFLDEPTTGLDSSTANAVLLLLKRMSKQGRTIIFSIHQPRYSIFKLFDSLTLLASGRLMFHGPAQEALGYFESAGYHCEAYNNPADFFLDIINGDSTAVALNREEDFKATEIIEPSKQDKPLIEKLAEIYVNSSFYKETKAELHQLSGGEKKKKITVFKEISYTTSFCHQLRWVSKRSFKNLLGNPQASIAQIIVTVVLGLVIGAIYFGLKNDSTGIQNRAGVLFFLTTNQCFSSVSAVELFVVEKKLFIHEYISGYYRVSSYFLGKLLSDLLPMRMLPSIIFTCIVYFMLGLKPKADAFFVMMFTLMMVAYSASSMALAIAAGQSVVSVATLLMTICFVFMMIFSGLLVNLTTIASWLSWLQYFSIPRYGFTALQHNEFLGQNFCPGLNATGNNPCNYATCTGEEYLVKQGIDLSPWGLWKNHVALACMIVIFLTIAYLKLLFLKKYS
Put plainly: Inhibition of ABCG2 (unknown origin) expressed in MDCK2 cells co-expressing BCRP (unknown origin) assessed as potentiation of SN-38-induced cytotoxicity measured after 72 hrs by MTT assay.

The target of data set [4] is ATP-dependent translocase ABCB1 (Homo sapiens, UniProt P08183). Put plainly: Inhibition of ABCB1 in human A2780/ADR cells assessed as potentiation of daunorubicin-induced cytotoxicity measured after 72 hrs by MTT assay.

Here are results for 18 molecules from BindingDB's records for doi:10.1016/j.ejmech.2018.12.019 (Rheinische Friedrich-Wilhelms-University of Bonn, 2019).

Sequence of ATP-dependent translocase ABCB1 (P08183 whole entry): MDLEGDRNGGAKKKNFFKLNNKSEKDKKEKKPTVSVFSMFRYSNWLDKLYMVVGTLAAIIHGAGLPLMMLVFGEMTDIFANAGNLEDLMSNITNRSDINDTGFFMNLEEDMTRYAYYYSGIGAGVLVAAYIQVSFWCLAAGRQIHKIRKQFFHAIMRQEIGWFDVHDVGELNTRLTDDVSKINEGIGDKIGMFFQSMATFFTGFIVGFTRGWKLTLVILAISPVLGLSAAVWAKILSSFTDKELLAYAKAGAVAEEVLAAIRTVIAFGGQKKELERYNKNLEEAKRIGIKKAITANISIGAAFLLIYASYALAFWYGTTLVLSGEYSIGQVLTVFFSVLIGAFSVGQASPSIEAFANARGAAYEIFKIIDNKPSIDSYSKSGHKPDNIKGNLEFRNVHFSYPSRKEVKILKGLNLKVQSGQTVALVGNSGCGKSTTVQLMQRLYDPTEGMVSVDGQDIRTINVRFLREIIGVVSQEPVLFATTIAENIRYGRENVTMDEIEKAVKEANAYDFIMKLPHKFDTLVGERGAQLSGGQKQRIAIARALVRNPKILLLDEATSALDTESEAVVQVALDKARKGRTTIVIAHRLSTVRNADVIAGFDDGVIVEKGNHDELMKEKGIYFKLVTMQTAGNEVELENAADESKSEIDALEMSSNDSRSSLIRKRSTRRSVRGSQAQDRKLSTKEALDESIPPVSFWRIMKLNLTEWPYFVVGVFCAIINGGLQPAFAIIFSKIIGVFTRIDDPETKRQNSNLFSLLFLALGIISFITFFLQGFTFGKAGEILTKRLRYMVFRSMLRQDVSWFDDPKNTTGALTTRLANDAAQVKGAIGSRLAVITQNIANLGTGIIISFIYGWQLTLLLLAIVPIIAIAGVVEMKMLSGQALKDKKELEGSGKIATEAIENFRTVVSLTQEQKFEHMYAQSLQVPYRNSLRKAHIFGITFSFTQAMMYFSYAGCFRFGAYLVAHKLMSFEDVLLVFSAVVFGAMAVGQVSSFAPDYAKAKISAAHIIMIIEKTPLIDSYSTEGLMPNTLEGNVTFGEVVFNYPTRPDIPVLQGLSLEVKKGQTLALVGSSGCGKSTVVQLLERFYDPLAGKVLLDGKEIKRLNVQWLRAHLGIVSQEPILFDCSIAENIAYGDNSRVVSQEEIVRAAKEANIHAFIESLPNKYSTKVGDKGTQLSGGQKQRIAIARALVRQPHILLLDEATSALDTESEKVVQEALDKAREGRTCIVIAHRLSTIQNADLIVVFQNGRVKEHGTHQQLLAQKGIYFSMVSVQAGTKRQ

The EC50 is the concentration needed to bring the measured effect to its halfway point. Consider `O=C(COc1c(-c2ccccc2Cl)oc2ccccc2c1=O)Nc1ccc2c(c1)COC2=O`, for which the EC50 is 9900 nM in data set [1] and 1220 nM in data set [2].

Turning to `CCCOc1ccc(/C=C/C(=O)c2ccc(O)cc2)cc1`, in data set [2], the EC50 is 1250 nM. Turning to `COc1cc(C(=O)/C=C/c2cc(OC)c(OC)c(OC)c2)ccc1O`, the EC50 in data set [2] is 512 nM.

On to `COc1cccc(/C=C/C(=O)c2ccc(OCC(=O)Nc3ccc(OC)c(OC)c3)cc2)c1`, for which the concentration giving a half-maximal response (EC50) in data set [2] stood at 1390 nM.

On to `O=C(COc1cccc(C(=O)/C=C/c2ccccc2)c1)Nc1ccc2c(c1)COC2=O`, for which, in data set [2], the EC50 amounted to 1170 nM. Turning to `COc1cc2ncnc(Nc3ccc(O)c(Br)c3)c2cc1OC` [WHI-P154], the EC50 in data set [1] is 3080 nM; in data set [3], 189 nM.

Regarding `Cc1ccc(-n2nc(C(C)(C)C)cc2NC(=O)Nc2ccc(OCCN3CCOCC3)c3ccccc23)cc1` [1-[5-tert-butyl-2-(p-tolyl)pyrazol-3-yl]-3-[4-(2-morpholinoethoxy)-1-naphthyl]urea], in data set [4], the EC50 came to 524 nM. Regarding `COc1ccc(NC(=O)COc2ccc(C(=O)/C=C/c3cc(OC)c(OC)c(OC)c3)cc2)cc1OC`, the EC50 in data set [2] came out at 107 nM. For `C[C@]1(O)C[C@@H](c2nc(-c3ccc4ccc(-c5ccccc5)nc4c3)c3c(N)nccn32)C1` [(1s,3s)-3-(8-amino-1-(2-phenylquinolin-7-yl)imidazo[1,5-a]pyrazin-3-yl)-1-methylcyclobutanol], the EC50 in data set [1] amounted to 2090 nM; in data set [3], 104 nM. Take `COC(=O)c1ccc2c(c1)NC(=O)/C2=C(\Nc1ccc(N(C)C(=O)CN2CCN(C)CC2)cc1)c1ccccc1` [BIBF-1120]: in data set [4], the EC50 was determined as 276 nM.

Take `Cc1cc(Nc2ncc(Cl)c(Nc3ccccc3S(=O)(=O)C(C)C)n2)c(OC(C)C)cc1C1CCNCC1`: the EC50 in data set [4] was determined as 89 nM. In the case of `CC(=O)Nc1cccc(-n2c(=O)n(C3CC3)c(=O)c3c(Nc4ccc(I)cc4F)n(C)c(=O)c(C)c32)c1` [CHEBI:75998], the EC50 in data set [4] amounted to 247 nM. As for `CN1CCN(c2cccc(Nc3nc4c(-c5ccc(S(C)(=O)=O)cc5)cccn4n3)c2)CC1`, the EC50 in data set [4] came out at 202 nM. Consider `COc1ccc(NC(=O)COc2ccc(C(=O)/C=C/c3c(F)cccc3F)cc2)cc1OC`, for which, in data set [2], the EC50 amounted to 448 nM. As to `COc1cc(/C=C/C(=O)c2ccc(OCC(=O)NCc3ccc4c(c3)OCO4)cc2)cc(OC)c1OC`, the EC50 in data set [2] was 989 nM.

`COc1ccc(-c2c(OCC(=O)Nc3cccc4ccccc34)oc3ccccc3c2=O)cc1`: the EC50 in data set [2] was determined as 793 nM. Take `Cc1ccc(-c2c(OCC(=O)Nc3cccc4ccccc34)oc3ccccc3c2=O)cc1`: the EC50 in data set [1] amounted to 5010 nM. As to `COc1ccc(-c2c(OCC(=O)Nc3cccc4ccccc34)oc3ccccc3c2=O)cc1OC`, the EC50 was determined as 3120 nM in data set [1] and 446 nM in data set [2].
